We go through twelve compounds from US5840740A, “Aminosterol compounds and a method of treating infection using the aminosterol compounds” (priority 1995, dated 1998).

The subject of this experiment is chick embryo vitelline capillaries. The experiment in a line: Chick embryo vitelline capillary regression assay. Type of experiment: in vivo. The following applies: for vascular reactivity (capillary regression): 60 min; for Chick embryo diss. assay, Minimum Effective Concentration: Table II. Further details: key to vascular reactivity (capillary regression): +: Vascular reactivity; 0: No vascular reactivity; +/-: Equivocal reactivity. On the procedure:
Using the chick embryo vitelline capillaries assay, compounds were tested for their ability to induce capillary regression. Each compound was applied in 0.1 ml of 15% Ficol 400 and PBS onto the embryo, and vascular regression was assessed after 60 minutes.
The 3-day chick embryo consists of an embryonic disc from which numerous vessels emerge and return, forming a "figure 8"-shaped structure--the embryo in the center with vascular loops extending outward over both poles. […] Following a lag period of around 15 minutes, the constriction of continuity between capillary and secondary vessels, generally on the "avenous" side, was observed. Continued pulsatile blood flow progressed, resulting in a "swelling" of the blind tube, followed by a pinching off of the remaining connection and formation of an enclosed vascular sac resembling a "blood island." This process progressed until only the largest vessels remained intact.

Structures can show the parent of a compound that is named as a salt.

`CC(C)CCC[C@@H](C)[C@H]1CC[C@H]2[C@@H]3CC[C@H]4C[C@@H](NCCCNCCCCN)CC[C@]4(C)[C@H]3CC[C@]12C` [Compound 303]: the “Chick embryo diss. assay, Minimum Effective Concentration” value (shortened to “Chick embryo diss. assay”) was > 10 µg. Further, for the setting “1 μg applied”, the “vascular reactivity (capillary regression)” value (shortened to “vascular reactivity”) is given as 0.

In the case of `C[C@H](CCC(=O)O)[C@H]1CC[C@H]2[C@@H]3CC[C@H]4C[C@H](NCCCNCCCCN)CC[C@]4(C)[C@H]3CC[C@]12C` [Compound 318], the “Chick embryo diss. assay” value is > 10 µg. The “vascular reactivity” value (1 μg applied) is given as 0.

In the case of `CC(C)CCC[C@@H](C)[C@H]1CC[C@H]2[C@@H]3CC[C@H]4C[C@H](NCCCNCCCCNCCCN)CC[C@]4(C)[C@H]3CC[C@]12C` [Compound 354], the “Chick embryo diss. assay” value is > 10 µg.

With `C[C@H](CCC(=O)O)[C@H]1CC[C@H]2[C@@H]3[C@H](O)C[C@H]4C[C@@H](NCCCNCCCCN)CC[C@]4(C)[C@H]3CC[C@]12C` [Compound 381], the “Chick embryo diss. assay” value is > 10 µg. The “vascular reactivity” value (1 μg applied) was found to be 0.

Take `C[C@H](CCC(=O)O)[C@H]1CC[C@H]2[C@@H]3[C@H](O)C[C@H]4C[C@H](NCCCNCCCCN)CC[C@]4(C)[C@H]3CC[C@]12C` [Compound 382]: the “Chick embryo diss. assay” value came to 0.01 µg. In addition, the “vascular reactivity” value (0.001 μg applied) was 0. Further, the “vascular reactivity” value (0.01 μg applied) was 0. The “vascular reactivity” value (0.1 μg applied) came out at 0. The “vascular reactivity” value (1 μg applied) is on record as “+”. Further, the “vascular reactivity” value (10 μg applied) is listed as “+”.

As to `CC(C)CCC[C@@H](C)[C@H]1CC[C@H]2[C@@H]3CC[C@H]4C[C@H](NCCCN5CCCCN=C5N)CC[C@]4(C)[C@H]3CC[C@]12C` [Compound 393], the “Chick embryo diss. assay” value was > 10 µg.

For the compound `COC(=O)CC[C@@H](C)[C@H]1CC[C@H]2[C@@H]3[C@H](O)C[C@H]4C[C@H](NCCCNCCCCN)CC[C@]4(C)[C@H]3CC[C@]12C` [Compound 394], the “Chick embryo diss. assay” value was > 10 µg.

Consider `COC(=O)CC[C@@H](C)[C@H]1CC[C@H]2[C@@H]3[C@H](O)C[C@H]4C[C@H](NCCCNCCCCNCCCN)CC[C@]4(C)[C@H]3CC[C@]12C` [Compound 395], for which the “Chick embryo diss. assay” value is > 10 µg.

Regarding `COC(=O)CC[C@@H](C)[C@H]1CC[C@H]2[C@@H]3[C@H](O)C[C@H]4C[C@@H](NCCCNCCCCNCCCN)CC[C@]4(C)[C@H]3CC[C@]12C` [Compound 396], the “Chick embryo diss. assay” value was found to be 10 µg. Moreover, the “vascular reactivity” value (0.001 μg applied) was 0. The “vascular reactivity” value (0.01 μg applied) stood at 0. Besides, the “vascular reactivity” value (0.1 μg applied) is 0. Besides, the “vascular reactivity” value (1 μg applied) was “+”.

For the compound `C[C@H](CCC(=O)O)[C@H]1CC[C@H]2[C@@H]3[C@H](O)C[C@H]4C[C@@H](NCCCNCCCCNCCCN)CC[C@]4(C)[C@H]3CC[C@]12C` [Compound 397], the “Chick embryo diss. assay” value worked out at 1 µg.

Take `C[C@H](CCCOS(=O)(=O)O)[C@H]1CC[C@H]2[C@@H]3CC[C@H]4C[C@@H](NCCCNCCCCN)CC[C@]4(C)[C@H]3CC[C@]12C` [Compound 399, 3β-N-1-{N[3-(4-Aminobutyl)]-1,3-diaminopropane}-24-hydroxy-5α-cholane 24-potassium sulfate]: the “Chick embryo diss. assay” value was > 10 µg.

For the compound `COC(=O)CC[C@@H](C)[C@H]1CC[C@H]2[C@@H]3[C@H](O)C[C@@H]4C[C@@H](NCCCNCCCCNCCCN)CC[C@]4(C)[C@H]3CC[C@]12C` [Compound 411], the “Chick embryo diss. assay” value is > 1 µg. Besides, the “vascular reactivity” value (1 μg applied) is “+/-”.
